This is an account of results in patent US11370763B2, “Compounds and compositions for treating conditions associated with NLRP activity” (Novartis AG, priority 2017, dated 2022).

This test deals with IL-1β production in PMA-differentiated THP-1 cells. Description: IL-1β production in PMA-differentiated THP-1 cells stimulated with gramicidin (hTHP-1 assay containing 2% fetal bovine serum; Procedures 1-3). In kind it is cell-based, human. Conditions: Homo sapiens, THP-1, hTHP-1 assay containing 2% fetal bovine serum; class symbols; read-out: hTHP-1 IC50 (Average IC50 of compounds in hTHP-1 assay). The gist of the method:
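THP-1 cells differentiated with PMA (20 ng/ml, 16-18 h), replated in 2% FBS RPMI (50,000 cells/well), preincubated 1 h with compound (top final 100 μM, 3-fold steps, 0.37% DMSO), then stimulated 2 h with gramicidin (5 μM). Supernatant IL-1β measured by HTRF.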

By IC50 is commonly meant the concentration needed to halve the response being measured. Take `CC(C)c1cc(COC2CCCC2)cc(C(C)C)c1CC(=O)N=S(N)(=O)c1cnc(C(C)(C)O)s1` (stereo not drawn) [Example 141, N-(amino(2-(2-hydroxypropan-2-yl)thiazol-5-yl)(oxo)-λ^6-sulfaneylidene)-2-(4-((cyclopentyloxy)methyl)-2,6-diisopropylphenyl)acetamide]: the concentration for half-maximal inhibition (IC50) was 0.04 to 0.2 µM.

Turning to `CC(C)c1cc2c(c(C(C)C)c1CC(=O)N=S(N)(=O)c1cnc(C(C)(C)O)s1)CCC2` (stereo not drawn) [Example 142, N-(amino(2-(2-hydroxypropan-2-yl)thiazol-5-yl)(oxo)-λ^6-sulfaneylidene)-2-(4,6-diisopropyl-2,3-dihydro-1H-inden-5-yl)acetamide], the IC50 fell in the range of 1 to 5 µM. As for `COc1cc(C(C)C)c(CC(=O)NS(=O)(=O)c2ncc(C(C)(C)O)s2)c(C(C)C)n1` [Example 143, 2-(2,4-diisopropyl-6-methoxypyridin-3-yl)-N-((5-(2-hydroxypropan-2-yl)thiazol-2-yl)sulfonyl)acetamide], the IC50 lay within 1 to 5 µM. As for `CC(C)c1ncc(F)c(C(C)C)c1CC(=O)N=S(N)(=O)c1ncc(C(C)(C)O)s1` (stereo not drawn) [Example 144, N-(amino(5-(2-hydroxypropan-2-yl)thiazol-2-yl)(oxo)-λ^6-sulfaneylidene)-2-(5-fluoro-2,4-diisopropylpyridin-3-yl)acetamide], the figure is 5 to 30 µM; as for `CC(C)c1ncc(F)c(C(C)C)c1CC(=O)N=S(N)(=O)c1cc(C(C)(C)O)cs1` (stereo not drawn) [Example 145, N-(amino(4-(2-hydroxypropan-2-yl)thiophen-2-yl)(oxo)-λ^6-sulfaneylidene)-2-(5-fluoro-2,4-diisopropylpyridin-3-yl)acetamide], 0.2 to 1 µM; as for `CC(C)c1ncc(F)c(C(C)C)c1CC(=O)N=S(N)(=O)c1cnc(C(C)(C)O)s1` (stereo not drawn) [Example 146, N-(amino(2-(2-hydroxypropan-2-yl)thiazol-5-yl)(oxo)-λ^6-sulfaneylidene)-2-(5-fluoro-2,4-diisopropylpyridin-3-yl)acetamide], 5 to 30 µM. As for `CC(C)c1ncc(F)c(C(C)C)c1CC(=O)N=S(N)(=O)c1nc(C(C)(C)O)cs1` (stereo not drawn) [Example 147, N-(amino(4-(2-hydroxypropan-2-yl)thiazol-2-yl)(oxo)-λ^6-sulfaneylidene)-2-(5-fluoro-2,4-diisopropylpyridin-3-yl)acetamide], the figure is 1 to 5 µM. As for `CC(C)c1ncc(F)c(C(C)C)c1CC(=O)N=S(N)(=O)c1ccn(C(C)C)n1` (stereo not drawn) [Example 148, N-(amino(1-isopropyl-1H-pyrazol-3-yl)(oxo)-λ^6-sulfaneylidene)-2-(5-fluoro-2,4-diisopropylpyridin-3-yl)acetamide], the figure is 5 to 30 µM; as for `CC(C)c1ncc(F)c(C(C)C)c1CC(=O)N=S(N)(=O)c1sc(C(C)(C)O)cc1F` (stereo not drawn) [Example 149, N-(amino(3-fluoro-5-(2-hydroxypropan-2-yl)thiophen-2-yl)(oxo)-λ^6-sulfaneylidene)-2-(5-fluoro-2,4-diisopropylpyridin-3-yl)acetamide], 0.2 to 1 µM. Consider `Cc1ncc(C(C)C)c(CC(=O)N=S(N)(=O)c2sc(C(C)(C)O)cc2F)c1C(C)C` (stereo not drawn) [Example 150, N-(amino(3-fluoro-5-(2-hydroxypropan-2-yl)thiophen-2-yl)(oxo)-λ^6-sulfaneylidene)-2-(3,5-diisopropyl-2-methylpyridin-4-yl)acetamide], for which the IC50 was 5 to 30 µM. For `CC(C)c1cc(C#N)nc(C(C)C)c1CC(=O)N=S(N)(=O)c1cc(C(C)(C)O)cs1` (stereo not drawn) [Example 151, N-(amino(4-(2-hydroxypropan-2-yl)thiophen-2-yl)(oxo)-λ^6-sulfaneylidene)-2-(6-cyano-2,4-diisopropylpyridin-3-yl)acetamide], the IC50 is 0.2 to 1 µM. As for `COCc1cc(C(C)C)c(CC(=O)N=S(N)(=O)c2cc(C(C)(C)O)cs2)c(C(C)C)n1` (stereo not drawn) [Example 152, N-(amino(4-(2-hydroxypropan-2-yl)thiophen-2-yl)(oxo)-λ^6-sulfaneylidene)-2-(2,4-diisopropyl-6-(methoxymethyl)pyridin-3-yl)acetamide], the figure is 0.2 to 1 µM; as for `CC(C)c1nc(C(F)(F)F)nc(C(C)C)c1CC(=O)N=S(N)(=O)c1cnc(C(C)(C)O)s1` (stereo not drawn) [Example 153, N-(amino(2-(2-hydroxypropan-2-yl)thiazol-5-yl)(oxo)-λ^6-sulfaneylidene)-2-(4,6-diisopropyl-2-(trifluoromethyl)pyrimidin-5-yl)acetamide], 1 to 5 µM. As for `CC(C)c1cnc(F)c(C(C)C)c1CC(=O)N=S(N)(=O)c1cnc(C(C)(C)O)s1` (stereo not drawn) [Example 154, N-(amino(2-(2-hydroxypropan-2-yl)thiazol-5-yl)(oxo)-λ^6-sulfaneylidene)-2-(2-fluoro-3,5-diisopropylpyridin-4-yl)acetamide], the figure is 5 to 30 µM; as for `CC(C)c1cc2c(c(C(C)C)c1CC(=O)N=S(N)(=O)c1cc(C(C)(C)O)cs1)COC2` (stereo not drawn) [Example 220, N-(amino(4-(2-hydroxypropan-2-yl)thiophen-2-yl)(oxo)-λ^6-sulfaneylidene)-2-(4,6-diisopropyl-1,3-dihydroisobenzofuran-5-yl)acetamide], 0.04 to 0.2 µM. As for `CC(C)c1cc2c(c(C(C)C)c1CC(=O)N=S(N)(=O)c1ccn(C(C)C)n1)COC2` (stereo not drawn) [Example 221, N-(amino(1-isopropyl-1H-pyrazol-3-yl)(oxo)-λ^6-sulfaneylidene)-2-(4,6-diisopropyl-1,3-dihydroisobenzofuran-5-yl)acetamide], the figure is 5 to 30 µM; as for `CC(C)c1cc(C#N)c(F)c(C(C)C)c1CC(=O)N=S(N)(=O)c1ncc(C(C)(C)O)s1` (stereo not drawn) [compound 13, 2-(4-cyano-3-fluoro-2,6-diisopropylphenyl)-N-(5-(2-hydroxypropan-2-yl)thiazol-2-ylsulfonimidoyl)acetamide], 0.2 to 1 µM.

Consider `COc1ccc(CNS(=O)(=NC(=O)Cc2c(C(C)C)cc(F)cc2C(C)C)c2ncc(C(C)(C)O)s2)cc1` (stereo not drawn) [compound 41, 2-(4-fluoro-2,6-diisopropylphenyl)-N-(5-(2-hydroxypropan-2-yl)-N-(4-methoxybenzyl)thiazole-2-sulfonimidoyl)acetamide], for which the half-maximal inhibitory concentration (IC50) fell in the range of 5 to 30 µM.
